The source of these data is article PMC11876601 (Molecular Systems Biology, 2025).

Experiment [1] addresses GSK3B ; P49841-2;P49841 (Homo sapiens, UniProt P49841). Put plainly: biochemical. On the set-up: species or system AsPC-1; Kinobeads competition pulldown in AsPC-1 lysate with LC-MS/MS label-free quantification; apparent Kd. The method, then: (§1) This was followed by incubation with Kinobeads ε (17.5 µl of settled beads) for 30 min at 4 °C to enrich kinases. […] Enriched proteins were reduced with 50 mM DTT in 8 M urea, 40 mM Tris-HCl, pH 7.4 for 30 min at room temperature, and alkylated with 55 mM chloroacetamide. After reducing the urea concentration to 1–2 M, proteins were digested with trypsin at 37 °C for 16 h. Subsequently, eluted peptides were desalted using SepPak tC18 µElution plates (Waters), freeze-dried by vacuum centrifugation, and stored at −20 °C. Proteins were filtered by potential contaminants, reversed hits and proteins identified only by site. Residual binding of proteins was calculated from LFQ intensities as the ratio between drug doses and vehicle. […] Only kinases quantified with at least 4 unique peptides in the vehicle experiment were considered. Potential targets were further curated through manual inspection of dose-dependent reduction in MS/MS and unique peptide counts.

The target in experiment [2] is PIK3C3 ; Q8NEB9 (Homo sapiens, UniProt Q8NEB9). The experiment can be described thus: biochemical. Details: species or system AsPC-1; Kinobeads competition pulldown in AsPC-1 lysate with LC-MS/MS label-free quantification; apparent Kd. The method, then:
as §1

Experiment [3] concerns the target STK3 ; Q13188;Q13188-2 (Homo sapiens, UniProt Q13188). Put plainly: biochemical. On the set-up: species or system AsPC-1; Kinobeads competition pulldown in AsPC-1 lysate with LC-MS/MS label-free quantification; apparent Kd. The procedure:
as §1

The target in experiment [4] is PIP4K2C ; Q8TBX8;Q8TBX8-2;Q8TBX8-3 (Homo sapiens, UniProt Q8TBX8). The experiment can be described thus: biochemical. On the set-up: species or system AsPC-1; Kinobeads competition pulldown in AsPC-1 lysate with LC-MS/MS label-free quantification; apparent Kd. The method, then:
as §1

For experiment [5], the system named is MAP3K11. The settings on record: MAP3K11, 5 cell line mix lysate, Kinobeads ε, ref Reinecke et al. (2023), cited from earlier work.
For experiment [6], the system named is TBKBP1. Particulars: TBKBP1, 5 cell line mix lysate, Kinobeads ε, ref Reinecke et al. (2023), cited from earlier work.
The target of experiment [7] is CIT ; O14578-4;O14578;O14578-2 (Homo sapiens, UniProt O14578). Put plainly: biochemical. Details: species or system AsPC-1; Kinobeads competition pulldown in AsPC-1 lysate with LC-MS/MS label-free quantification; apparent Kd. The procedure: as §1
Experiment [8] has as its target ADCK1 ; Q86TW2;Q86TW2-2;Q86TW2-3 (Homo sapiens, UniProt Q86TW2). Put plainly: biochemical. Details: species or system AsPC-1; Kinobeads competition pulldown in AsPC-1 lysate with LC-MS/MS label-free quantification; apparent Kd. The procedure:
as §1

The target of experiment [9] is CDC42BPG ; Q6DT37 (Homo sapiens, UniProt Q6DT37). The experiment can be described thus: biochemical. On the set-up: species or system AsPC-1; Kinobeads competition pulldown in AsPC-1 lysate with LC-MS/MS label-free quantification; apparent Kd. The procedure: as §1
Experiment [10] deals with CLK2 ; P49760-3;P49760 (Homo sapiens, UniProt P49760). Put plainly: biochemical. On the set-up: species or system AsPC-1; Kinobeads competition pulldown in AsPC-1 lysate with LC-MS/MS label-free quantification; apparent Kd. The procedure:
as §1

Experiment [11] concerns the target CLK1 ; P49759-3;P49759;P49759-2 (Homo sapiens, UniProt P49759). The experiment can be described thus: biochemical. On the set-up: species or system AsPC-1; Kinobeads competition pulldown in AsPC-1 lysate with LC-MS/MS label-free quantification; apparent Kd. The procedure: as §1
Experiment [12] concerns the target CDK10 ; Q15131;Q15131-5;Q15131-2;Q15131-6;Q15131-4;Q15131-3;Q15131-7 (Homo sapiens, UniProt Q15131). The experiment can be described thus: biochemical. Details: species or system AsPC-1; Kinobeads competition pulldown in AsPC-1 lysate with LC-MS/MS label-free quantification; apparent Kd. The procedure: as §1
The target of experiment [13] is TP53RK ; Q96S44 (Homo sapiens, UniProt Q96S44). The experiment can be described thus: biochemical. Details: species or system AsPC-1; Kinobeads competition pulldown in AsPC-1 lysate with LC-MS/MS label-free quantification; apparent Kd. The procedure:
as §1

In experiment [14] the target is CSNK2A2 ; P19784 (Homo sapiens, UniProt P19784). The experiment can be described thus: biochemical. On the set-up: species or system AsPC-1; Kinobeads competition pulldown in AsPC-1 lysate with LC-MS/MS label-free quantification; apparent Kd. The procedure: as §1
Experiment [15] has as its target AXL ; P30530-2;P30530 (Homo sapiens, UniProt P30530). The experiment can be described thus: biochemical. On the set-up: species or system AsPC-1; Kinobeads competition pulldown in AsPC-1 lysate with LC-MS/MS label-free quantification; apparent Kd. The method, then:
as §1

Experiment [16] deals with CDC42BPA ; Q5VT25-5;Q5VT25-4;Q5VT25;Q5VT25-2;Q5VT25-6;Q5VT25-3 (Homo sapiens, UniProt Q5VT25). Put plainly: biochemical. Details: species or system AsPC-1; Kinobeads competition pulldown in AsPC-1 lysate with LC-MS/MS label-free quantification; apparent Kd. The method, then: as §1
Experiment [17] deals with FN3KRP ; Q9HA64 (Homo sapiens, UniProt Q9HA64). Put plainly: biochemical. Details: species or system AsPC-1; Kinobeads competition pulldown in AsPC-1 lysate with LC-MS/MS label-free quantification; apparent Kd. The procedure:
as §1

Chain of CIT ; O14578-4;O14578;O14578-2 (O14578 whole entry): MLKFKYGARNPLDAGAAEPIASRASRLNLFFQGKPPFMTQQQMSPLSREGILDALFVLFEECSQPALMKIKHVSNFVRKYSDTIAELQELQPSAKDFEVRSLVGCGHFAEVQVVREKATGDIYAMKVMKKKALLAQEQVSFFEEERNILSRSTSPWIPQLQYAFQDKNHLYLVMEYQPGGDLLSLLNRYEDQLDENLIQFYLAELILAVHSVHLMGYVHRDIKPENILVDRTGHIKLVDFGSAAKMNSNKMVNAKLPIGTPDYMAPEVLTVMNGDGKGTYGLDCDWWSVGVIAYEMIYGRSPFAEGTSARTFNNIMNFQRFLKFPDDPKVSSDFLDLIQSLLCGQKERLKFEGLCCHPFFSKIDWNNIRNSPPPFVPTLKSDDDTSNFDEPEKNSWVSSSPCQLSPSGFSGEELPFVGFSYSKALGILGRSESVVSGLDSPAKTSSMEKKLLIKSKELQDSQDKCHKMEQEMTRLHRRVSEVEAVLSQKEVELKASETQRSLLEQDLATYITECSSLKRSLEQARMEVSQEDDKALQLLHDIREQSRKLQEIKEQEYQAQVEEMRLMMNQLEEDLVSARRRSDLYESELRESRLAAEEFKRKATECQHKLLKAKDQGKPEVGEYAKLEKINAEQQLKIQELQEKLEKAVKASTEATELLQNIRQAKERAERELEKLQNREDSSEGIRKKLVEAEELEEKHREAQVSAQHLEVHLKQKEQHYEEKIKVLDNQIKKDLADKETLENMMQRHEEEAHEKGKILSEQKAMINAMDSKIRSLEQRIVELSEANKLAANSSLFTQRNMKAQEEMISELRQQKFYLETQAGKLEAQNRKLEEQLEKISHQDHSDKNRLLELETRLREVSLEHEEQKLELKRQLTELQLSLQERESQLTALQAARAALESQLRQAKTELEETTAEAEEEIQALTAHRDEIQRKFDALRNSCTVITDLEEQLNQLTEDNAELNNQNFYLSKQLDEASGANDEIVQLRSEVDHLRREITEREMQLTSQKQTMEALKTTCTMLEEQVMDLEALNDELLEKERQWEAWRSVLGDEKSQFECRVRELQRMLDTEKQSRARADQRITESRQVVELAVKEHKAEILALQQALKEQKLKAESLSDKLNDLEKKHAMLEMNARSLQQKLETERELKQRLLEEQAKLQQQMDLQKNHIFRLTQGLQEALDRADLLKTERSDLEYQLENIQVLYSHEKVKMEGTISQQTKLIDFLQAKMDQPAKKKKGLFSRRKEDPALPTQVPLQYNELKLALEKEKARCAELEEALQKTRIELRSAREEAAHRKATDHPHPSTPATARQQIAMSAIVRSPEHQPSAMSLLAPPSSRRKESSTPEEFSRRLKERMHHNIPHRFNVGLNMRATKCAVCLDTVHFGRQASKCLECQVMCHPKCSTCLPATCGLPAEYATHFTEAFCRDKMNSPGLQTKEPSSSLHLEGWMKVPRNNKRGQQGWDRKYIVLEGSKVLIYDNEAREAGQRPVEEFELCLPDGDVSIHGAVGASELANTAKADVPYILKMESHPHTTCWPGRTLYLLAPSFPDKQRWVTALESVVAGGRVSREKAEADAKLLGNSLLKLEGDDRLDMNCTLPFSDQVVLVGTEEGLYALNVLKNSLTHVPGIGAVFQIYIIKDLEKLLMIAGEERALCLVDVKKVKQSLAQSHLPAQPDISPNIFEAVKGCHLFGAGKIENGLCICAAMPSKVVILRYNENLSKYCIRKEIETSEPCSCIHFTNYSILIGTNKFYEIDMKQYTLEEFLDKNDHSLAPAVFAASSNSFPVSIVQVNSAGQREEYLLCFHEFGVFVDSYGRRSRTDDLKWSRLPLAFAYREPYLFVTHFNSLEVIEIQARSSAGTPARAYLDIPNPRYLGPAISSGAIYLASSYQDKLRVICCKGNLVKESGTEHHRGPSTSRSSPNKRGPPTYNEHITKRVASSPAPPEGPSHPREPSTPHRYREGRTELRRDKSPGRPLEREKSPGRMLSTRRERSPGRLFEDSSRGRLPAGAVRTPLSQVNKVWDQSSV
Chain of PIK3C3 ; Q8NEB9 (Q8NEB9 whole entry): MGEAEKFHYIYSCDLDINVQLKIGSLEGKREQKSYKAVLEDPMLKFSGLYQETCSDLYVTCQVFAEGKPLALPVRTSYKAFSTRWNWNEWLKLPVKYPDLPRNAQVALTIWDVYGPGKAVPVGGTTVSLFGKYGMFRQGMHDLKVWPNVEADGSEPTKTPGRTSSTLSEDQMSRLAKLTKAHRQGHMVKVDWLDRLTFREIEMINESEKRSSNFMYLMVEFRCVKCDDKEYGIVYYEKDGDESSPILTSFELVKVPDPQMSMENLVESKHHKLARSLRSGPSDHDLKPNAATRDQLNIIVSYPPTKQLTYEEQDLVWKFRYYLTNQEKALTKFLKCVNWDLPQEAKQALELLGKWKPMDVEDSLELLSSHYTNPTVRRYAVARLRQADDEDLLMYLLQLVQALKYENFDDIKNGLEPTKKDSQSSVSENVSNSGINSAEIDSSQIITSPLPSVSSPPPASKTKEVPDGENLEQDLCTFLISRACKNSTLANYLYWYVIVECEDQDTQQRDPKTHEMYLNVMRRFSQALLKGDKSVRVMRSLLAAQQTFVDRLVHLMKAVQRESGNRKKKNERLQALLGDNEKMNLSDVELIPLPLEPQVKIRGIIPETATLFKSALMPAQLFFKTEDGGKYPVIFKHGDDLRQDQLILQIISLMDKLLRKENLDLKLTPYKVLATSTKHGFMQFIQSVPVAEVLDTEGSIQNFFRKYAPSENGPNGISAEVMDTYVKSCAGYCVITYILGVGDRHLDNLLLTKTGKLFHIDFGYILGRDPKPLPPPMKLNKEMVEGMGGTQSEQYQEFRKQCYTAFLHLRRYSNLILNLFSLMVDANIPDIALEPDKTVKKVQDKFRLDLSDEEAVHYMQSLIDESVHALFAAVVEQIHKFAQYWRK
Chain of ADCK1 ; Q86TW2;Q86TW2-2;Q86TW2-3 (Q86TW2 whole entry): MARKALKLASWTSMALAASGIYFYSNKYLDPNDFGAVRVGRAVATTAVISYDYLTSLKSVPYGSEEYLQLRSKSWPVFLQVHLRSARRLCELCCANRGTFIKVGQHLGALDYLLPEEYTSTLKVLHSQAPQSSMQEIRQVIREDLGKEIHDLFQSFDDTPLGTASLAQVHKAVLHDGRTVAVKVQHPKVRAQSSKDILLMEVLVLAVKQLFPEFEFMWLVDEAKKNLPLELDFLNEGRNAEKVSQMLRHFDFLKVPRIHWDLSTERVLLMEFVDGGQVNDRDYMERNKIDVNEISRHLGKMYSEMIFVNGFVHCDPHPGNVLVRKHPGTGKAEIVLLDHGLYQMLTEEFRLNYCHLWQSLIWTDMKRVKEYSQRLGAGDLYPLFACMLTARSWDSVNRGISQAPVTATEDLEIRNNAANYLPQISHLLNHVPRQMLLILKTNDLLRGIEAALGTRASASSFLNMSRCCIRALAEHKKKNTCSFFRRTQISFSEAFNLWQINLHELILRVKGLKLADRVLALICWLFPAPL
Chain of GSK3B ; P49841-2;P49841 (P49841 whole entry): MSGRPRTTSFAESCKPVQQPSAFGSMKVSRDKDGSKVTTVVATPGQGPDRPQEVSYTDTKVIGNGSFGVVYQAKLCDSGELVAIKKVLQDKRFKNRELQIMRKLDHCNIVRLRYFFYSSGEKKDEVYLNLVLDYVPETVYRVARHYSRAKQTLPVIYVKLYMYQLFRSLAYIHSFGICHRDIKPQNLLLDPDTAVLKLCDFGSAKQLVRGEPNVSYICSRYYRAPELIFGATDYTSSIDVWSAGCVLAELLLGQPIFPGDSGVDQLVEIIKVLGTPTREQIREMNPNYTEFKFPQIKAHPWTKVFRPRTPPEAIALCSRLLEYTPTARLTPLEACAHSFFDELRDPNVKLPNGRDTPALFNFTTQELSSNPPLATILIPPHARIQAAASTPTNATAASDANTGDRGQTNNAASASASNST
Chain of CLK1 ; P49759-3;P49759;P49759-2 (P49759 whole entry): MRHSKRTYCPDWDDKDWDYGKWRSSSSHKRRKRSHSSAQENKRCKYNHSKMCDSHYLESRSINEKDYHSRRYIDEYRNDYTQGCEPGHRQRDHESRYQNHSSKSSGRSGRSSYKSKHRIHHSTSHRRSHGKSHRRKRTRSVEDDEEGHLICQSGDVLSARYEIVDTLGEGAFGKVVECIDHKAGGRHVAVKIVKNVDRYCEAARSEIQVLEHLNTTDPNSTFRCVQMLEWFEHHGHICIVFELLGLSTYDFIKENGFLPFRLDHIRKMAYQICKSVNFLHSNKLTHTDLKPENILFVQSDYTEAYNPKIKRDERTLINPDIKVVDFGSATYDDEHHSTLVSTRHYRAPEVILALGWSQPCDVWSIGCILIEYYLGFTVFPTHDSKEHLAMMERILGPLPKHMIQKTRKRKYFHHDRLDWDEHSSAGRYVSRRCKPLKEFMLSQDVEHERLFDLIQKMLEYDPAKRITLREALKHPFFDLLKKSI
Chain of PIP4K2C ; Q8TBX8;Q8TBX8-2;Q8TBX8-3 (Q8TBX8 whole entry): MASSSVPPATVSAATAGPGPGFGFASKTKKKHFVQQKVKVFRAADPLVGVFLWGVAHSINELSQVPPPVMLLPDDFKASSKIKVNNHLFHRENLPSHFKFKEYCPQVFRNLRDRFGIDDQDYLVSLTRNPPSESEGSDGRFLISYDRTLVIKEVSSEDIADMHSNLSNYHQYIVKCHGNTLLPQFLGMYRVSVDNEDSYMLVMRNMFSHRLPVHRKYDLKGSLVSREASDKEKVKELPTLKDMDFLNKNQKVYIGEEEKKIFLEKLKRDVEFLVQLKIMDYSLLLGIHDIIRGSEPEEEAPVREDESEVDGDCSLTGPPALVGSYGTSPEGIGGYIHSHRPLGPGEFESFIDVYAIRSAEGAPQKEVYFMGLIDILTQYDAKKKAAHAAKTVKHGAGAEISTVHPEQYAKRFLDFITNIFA
Chain of TP53RK ; Q96S44 (Q96S44 whole entry): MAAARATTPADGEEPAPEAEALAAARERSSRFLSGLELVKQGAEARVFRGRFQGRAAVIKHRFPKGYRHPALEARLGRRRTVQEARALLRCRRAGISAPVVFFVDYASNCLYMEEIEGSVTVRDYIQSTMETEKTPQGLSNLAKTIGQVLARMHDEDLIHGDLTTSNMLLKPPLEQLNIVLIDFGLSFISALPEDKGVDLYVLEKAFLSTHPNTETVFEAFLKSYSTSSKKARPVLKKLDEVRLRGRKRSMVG

Regarding `CNCc1ccc(-c2cc(-c3nc(-c4ccc(S(=O)(=O)C(C)C)cc4)cnc3N)on2)cc1` [Berzosertib], the Kd in experiment [1] turned out to be 33.2 nM; in [2] it was 9.2 nM; in experiment [3], 70.2 nM; in experiment [4], 21.4 nM.

As for `COc1cc(N2CCC(N3CCN(C)CC3)CC2)ccc1Nc1ncc(Cl)c(Nc2ccccc2P(C)(C)=O)n1` [Brigatinib], the 50% effective concentration (EC50) is 3.2 µM in experiment [5] and 940 nM in experiment [6]. Further, the figures for the pKDapp in experiment [5] and in experiment [6] were 5.65 and 6.13, respectively. The Kd in experiment [5] (read-out: KDapp) was 2230 nM; in [6] (read-out: KDapp), 746 nM.

Regarding `Nc1nn2cc(F)cnc2c1C(=O)Nc1cncc(F)c1N1CCC(C(=O)N2CCN(C3COC3)CC2)CC1` [Gartisertib], the Kd in experiment [7] came out at 40 nM; in [8], 23.2 nM; in experiment [9], 16.9 nM; in experiment [10], 303 nM; in experiment [11], 70.9 nM; in [12], 153 nM. Further, the Kd in experiment [13] was found to be 113 nM; in experiment [14], 15.1 nM; in experiment [15] it was 473 nM; in [16] it was 15.4 nM; in [17], 358 nM.
